Test results as given in the NIST ThermoML archive (doi:10.1021/je100256w).

Assay: cn = amount concentration of the nth substance listed, in mol/dm3
Details: 101 kPa, Liquid, Dip Cell

CCCCCCCCCCCCCCCC[N+](C)(C)CCCC[N+](C)(C)CCCCCCCCCCCCCCCC.[Br-].[Br-] + O
electrical conductivity [S/m]
Details | 298 K | 303 K | 308 K | 313 K
c1 = 3.3e-06 | 6.6e-05 | 6.6e-05 | 6.7e-05 | 6.8e-05
c1 = 6.6e-06 | 0.000121 | 0.000134 | 0.00015 | 0.00016
c1 = 9.9e-06 | 0.000187 | 0.000196 | 0.000207 | 0.000227
c1 = 1.32e-05 | 0.000256 | 0.000274 | 0.00029 | 0.000301
c1 = 1.64e-05 | 0.000326 | 0.000336 | 0.000346 | 0.000372
c1 = 1.96e-05 | 0.000397 | 0.000407 | 0.000429 | 0.000449
c1 = 2.28e-05 | 0.000463 | 0.000486 | 0.000507 | 0.000527
c1 = 2.6e-05 | 0.000539 | 0.000539 | 0.000559 | 0.000575
c1 = 2.91e-05 | 0.000615 | 0.000626 | 0.000642 | 0.000666
c1 = 3.23e-05 | 0.00067 | 0.000679 | 0.000695 | 0.000715
c1 = 3.54e-05 | 0.000736 | 0.000746 | 0.000766 | 0.000787
c1 = 3.85e-05 | 0.000789 | 0.000799 | 0.000799 | 0.000851
c1 = 4.15e-05 | 0.000856 | 0.000866 | 0.000889 | 0.000901
c1 = 4.46e-05 | 0.000916 | 0.000926 | 0.000946 | 0.000966
c1 = 4.76e-05 | 0.000962 | 0.000985 | 0.001 | 0.00103
c1 = 5.06e-05 | 0.001 | 0.00102 | 0.00105 | 0.00108
c1 = 5.36e-05 | 0.00105 | 0.00106 | 0.00108 | 0.0011
c1 = 5.66e-05 | 0.0011 | 0.00112 | 0.00113 | 0.00115
c1 = 5.96e-05 | 0.00116 | 0.00118 | 0.0012 | 0.00122
c1 = 6.25e-05 | 0.00121 | 0.00123 | 0.00125 | 0.00127
c1 = 6.54e-05 | 0.00126 | 0.00126 | 0.00128 | 0.00133
c1 = 6.83e-05 | 0.0013 | 0.00131 | 0.00133 | 0.00137
c1 = 7.12e-05 | 0.00134 | 0.00137 | 0.00138 | 0.0014
c1 = 7.41e-05 | 0.0014 | – | – | –
